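Exposure lasted 48 hours, with cells grown in 96-well plates and compounds tested at five concentrations. TGI: concentration producing complete growth inhibition.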
Legend:
Test in all cases: NCI anticancer screen, dose series, 48 h
[1] = test system: M14 melanoma
[2] = test system: UO-31 renal
[3] = test system: HS 578T breast
[4] = test system: SK-MEL-28 melanoma
[5] = test system: SK-OV-3 ovarian
[6] = test system: LOX IMVI melanoma
[7] = test system: RXF 393 renal
[8] = test system: SK-MEL-2 melanoma
[9] = test system: SW-620 colon
[10] = test system: HOP-62 NSCLC
[11] = test system: HCT-15 colon
[12] = test system: A498 renal
[13] = test system: DU-145 prostate
[14] = test system: SF-539 CNS
[15] = test system: K-562 leukemia
[16] = test system: 786-0 renal
[17] = test system: OVCAR-5 ovarian
[18] = test system: MCF7 breast
[19] = test system: SN12C renal
[20] = test system: A549 NSCLC
[21] = test system: MALME-3M melanoma
[22] = test system: BT-549 breast
[23] = test system: MDA-N
[24] = test system: SK-MEL-5 melanoma
[25] = test system: NCI-H460 lung
[26] = test system: SF-295 CNS
[27] = test system: UACC-257 melanoma
[28] = test system: MOLT-4 leukemia
[29] = test system: NCI-H522 lung
[30] = test system: SF-268 CNS
[31] = test system: HL-60(TB) leukemia
[32] = test system: RPMI-8226 leukemia
[33] = test system: NCI-H23 lung
[34] = test system: SNB-75 CNS
[35] = test system: T-47D breast
[36] = test system: NCI/ADR-RES ovarian
[37] = test system: KM12 colon
[38] = test system: HOP-92 NSCLC
[39] = test system: OVCAR-4 ovarian
[40] = test system: HCC-2998 colon
[41] = test system: NCI-H226 lung
[42] = test system: UACC-62 melanoma
[43] = test system: OVCAR-8 ovarian
[44] = test system: HT29 colon
[45] = test system: HCT-116 colon
[46] = test system: PC-3 prostate
[47] = test system: IGROV1 ovarian
[48] = test system: CAKI-1 renal
[49] = test system: U251 CNS
[50] = test system: CCRF-CEM leukemia
[51] = test system: OVCAR-3 ovarian
[52] = test system: COLO 205 colon
[53] = test system: EKVX NSCLC
[54] = test system: TK-10 renal
[55] = test system: MDA-MB-231 breast
[56] = test system: SNB-19 CNS
[57] = test system: ACHN renal
[58] = test system: MDA-MB-435
[59] = test system: SR leukemia

CC(C)(C)OC(=O)NCCC1SC2C=CC1C2 (stereo unspecified)
TGI [1]: > 100 µM | TGI [2]: > 100 µM | TGI [3]: > 100 µM | TGI [4]: > 100 µM | TGI [5]: > 100 µM | TGI [6]: > 100 µM | TGI [7]: > 100 µM | TGI [8]: > 100 µM | TGI [9]: > 100 µM | TGI [10]: > 100 µM | TGI [11]: > 100 µM | TGI [12]: > 100 µM | TGI [13]: > 100 µM | TGI [14]: > 100 µM | TGI [15]: > 100 µM | TGI [16]: > 100 µM | TGI [17]: > 100 µM | TGI [18]: > 100 µM | TGI [19]: > 100 µM | TGI [20]: > 100 µM | TGI [21]: > 100 µM | TGI [22]: > 100 µM | TGI [23]: > 100 µM | TGI [24]: > 100 µM | TGI [25]: > 100 µM | TGI [26]: > 100 µM | TGI [27]: > 100 µM | TGI [28]: > 100 µM | TGI [29]: > 100 µM | TGI [30]: > 100 µM | TGI [31]: > 100 µM | TGI [32]: > 100 µM | TGI [33]: > 100 µM | TGI [34]: > 100 µM | TGI [35]: > 100 µM | TGI [36]: > 100 µM | TGI [37]: > 100 µM | TGI [38]: > 100 µM | TGI [39]: > 100 µM | TGI [40]: > 100 µM | TGI [41]: > 100 µM | TGI [42]: > 100 µM | TGI [43]: > 100 µM | TGI [44]: > 100 µM | TGI [45]: > 100 µM | TGI [46]: > 100 µM | TGI [47]: > 100 µM | TGI [48]: > 100 µM | TGI [49]: > 100 µM | TGI [50]: > 100 µM | TGI [51]: > 100 µM | TGI [52]: > 100 µM | TGI [53]: > 100 µM | TGI [54]: > 100 µM | TGI [55]: > 100 µM | TGI [56]: > 100 µM | TGI [57]: > 100 µM | TGI [58]: > 100 µM

O=c1cc(-c2ccccc2)nc(-n2[nH]c3c(c2=O)CCCC3)[nH]1
TGI [1]: 26.8 µM | TGI [2]: > 100 µM | TGI [3]: > 100 µM | TGI [4]: 28.9 µM | TGI [5]: > 100 µM | TGI [7]: 25.5 µM | TGI [8]: 29.4 µM | TGI [9]: > 100 µM | TGI [11]: > 100 µM | TGI [12]: > 100 µM | TGI [13]: 3.97 µM | TGI [14]: 44.6 µM | TGI [15]: > 100 µM | TGI [16]: 46.3 µM | TGI [17]: > 100 µM | TGI [18]: > 100 µM | TGI [19]: > 100 µM | TGI [20]: > 100 µM | TGI [21]: > 100 µM | TGI [22]: > 100 µM | TGI [23]: > 100 µM | TGI [24]: > 100 µM | TGI [25]: > 100 µM | TGI [26]: > 100 µM | TGI [27]: > 100 µM | TGI [28]: > 100 µM | TGI [29]: 69.6 µM | TGI [30]: > 100 µM | TGI [31]: > 100 µM | TGI [32]: 65.7 µM | TGI [33]: > 100 µM | TGI [34]: 14.2 µM | TGI [37]: > 100 µM | TGI [38]: > 100 µM | TGI [39]: 61.9 µM | TGI [41]: > 100 µM | TGI [42]: 15.6 µM | TGI [44]: 33.8 µM | TGI [45]: 18.6 µM | TGI [46]: > 100 µM | TGI [47]: > 100 µM | TGI [48]: > 100 µM | TGI [49]: > 100 µM | TGI [59]: > 100 µM | TGI [50]: 35.8 µM | TGI [52]: 40.8 µM | TGI [53]: > 100 µM | TGI [54]: > 100 µM | TGI [55]: > 100 µM | TGI [56]: > 100 µM | TGI [57]: 80.1 µM | TGI [58]: 89.9 µM

COC(=O)Cc1cc2c(cc1C(=O)c1ccc(N)cc1)OCO2
TGI [1]: > 100 µM | TGI [2]: > 100 µM | TGI [3]: > 25.4 µM | TGI [4]: > 100 µM | TGI [5]: > 29.2 µM | TGI [6]: > 100 µM | TGI [7]: > 23.9 µM | TGI [8]: 5.36 µM | TGI [9]: > 100 µM | TGI [10]: > 100 µM | TGI [11]: > 37.7 µM | TGI [12]: > 27.4 µM | TGI [13]: > 39.1 µM | TGI [14]: > 27.2 µM | TGI [15]: > 100 µM | TGI [16]: > 100 µM | TGI [17]: 83.3 µM | TGI [18]: > 100 µM | TGI [19]: > 100 µM | TGI [20]: > 77.8 µM | TGI [21]: > 100 µM | TGI [22]: > 20.3 µM | TGI [23]: 1.43 µM | TGI [24]: 4.49 µM | TGI [25]: > 100 µM | TGI [26]: 5.33 µM | TGI [27]: > 100 µM | TGI [28]: 33.8 µM | TGI [29]: 1.01 µM | TGI [30]: > 30.7 µM | TGI [31]: > 26.2 µM | TGI [32]: 6.08 µM | TGI [33]: > 100 µM | TGI [34]: 5.84 µM | TGI [35]: > 100 µM | TGI [36]: 15.3 µM | TGI [37]: > 100 µM | TGI [38]: 61 µM | TGI [39]: > 100 µM | TGI [40]: 3.58 µM | TGI [41]: > 100 µM | TGI [42]: > 55 µM | TGI [43]: > 34.5 µM | TGI [44]: 3.99 µM | TGI [45]: > 45.9 µM | TGI [46]: > 27.2 µM | TGI [47]: 13 µM | TGI [48]: > 100 µM | TGI [49]: > 100 µM | TGI [50]: 8 µM | TGI [51]: 6.99 µM | TGI [52]: 10 µM | TGI [53]: > 100 µM | TGI [54]: > 100 µM | TGI [55]: > 30.9 µM | TGI [56]: > 82.8 µM | TGI [57]: > 100 µM | TGI [58]: 0.667 µM

CCOC(=O)C1OC(=O)CC1C1(C(=O)OCC)C=CC(=O)O1 (stereo unspecified)
TGI [1]: > 100 µM | TGI [2]: > 100 µM | TGI [4]: > 100 µM | TGI [5]: > 100 µM | TGI [6]: 93.3 µM | TGI [7]: > 100 µM | TGI [8]: > 100 µM | TGI [9]: > 100 µM | TGI [10]: > 100 µM | TGI [11]: > 100 µM | TGI [13]: > 100 µM | TGI [14]: > 100 µM | TGI [15]: > 100 µM | TGI [16]: > 100 µM | TGI [17]: > 100 µM | TGI [18]: > 100 µM | TGI [19]: > 100 µM | TGI [20]: > 100 µM | TGI [21]: > 100 µM | TGI [22]: > 100 µM | TGI [23]: > 100 µM | TGI [24]: > 100 µM | TGI [25]: 58.1 µM | TGI [26]: > 100 µM | TGI [27]: > 100 µM | TGI [28]: > 100 µM | TGI [29]: > 100 µM | TGI [30]: > 100 µM | TGI [31]: > 100 µM | TGI [32]: > 100 µM | TGI [33]: > 100 µM | TGI [34]: > 100 µM | TGI [36]: > 100 µM | TGI [37]: > 100 µM | TGI [38]: > 100 µM | TGI [39]: > 100 µM | TGI [40]: > 100 µM | TGI [41]: > 100 µM | TGI [42]: > 100 µM | TGI [43]: > 100 µM | TGI [44]: > 100 µM | TGI [45]: > 100 µM | TGI [46]: > 100 µM | TGI [47]: > 100 µM | TGI [48]: > 100 µM | TGI [49]: > 100 µM | TGI [59]: > 100 µM | TGI [50]: > 100 µM | TGI [51]: > 100 µM | TGI [52]: > 100 µM | TGI [53]: > 100 µM | TGI [54]: > 100 µM | TGI [56]: > 100 µM | TGI [57]: > 100 µM

CC1CC/C(=C\c2ccc(F)cc2)C2=C1C(c1ccc(F)cc1)n1c(s/c(=C/c3cccc(Br)c3)c1=O)=N2 (stereo unspecified)
TGI [1]: > 100 µM | TGI [3]: > 100 µM | TGI [4]: > 100 µM | TGI [5]: > 100 µM | TGI [6]: > 100 µM | TGI [7]: > 100 µM | TGI [8]: > 100 µM | TGI [9]: > 100 µM | TGI [10]: > 100 µM | TGI [11]: > 100 µM | TGI [12]: > 100 µM | TGI [13]: > 100 µM | TGI [15]: > 100 µM | TGI [16]: > 100 µM | TGI [17]: > 100 µM | TGI [18]: > 100 µM | TGI [19]: > 100 µM | TGI [20]: > 100 µM | TGI [23]: > 100 µM | TGI [24]: > 100 µM | TGI [27]: > 100 µM | TGI [28]: > 100 µM | TGI [30]: > 100 µM | TGI [31]: > 100 µM | TGI [32]: > 100 µM | TGI [34]: > 100 µM | TGI [37]: > 100 µM | TGI [38]: > 100 µM | TGI [42]: > 100 µM | TGI [43]: > 100 µM | TGI [44]: > 100 µM | TGI [45]: > 100 µM | TGI [46]: > 100 µM | TGI [47]: > 100 µM | TGI [48]: > 100 µM | TGI [49]: > 100 µM | TGI [59]: > 100 µM | TGI [50]: > 100 µM | TGI [53]: > 100 µM | TGI [54]: > 100 µM | TGI [55]: > 100 µM | TGI [56]: > 100 µM | TGI [57]: > 100 µM | TGI [58]: > 100 µM
